≈ marks a conversion by molar mass, not a printed value.
What was measured:
[1] = Compound solubility in water; details: water; for solubility: Compound Solubility in Water
[2] = biological target: T1, glucocerebrosidase (Gcase) (Homo sapiens, UniProt P04062); experiment: Glucocerebrosidase (Gcase) activation assay, 4-methylumbelliferyl-beta-D-glucopyranoside substrate, fluorescence readout; type: biochemical; details: for activation at 0.1 µM / Percent Gcase Activation, 0.1 μM Test Compound: test compound at 0.1 μM; for activation at 0.1 µM: read-out: Percent Gcase Activation, 0.1 μM Test Compound; for activation at 1 µM / Percent Gcase Activation, 1 μM Test Compound: test compound at 1.0 μM; for activation at 1 µM: read-out: Percent Gcase Activation, 1 μM Test Compound
T1 construct: micellar solution containing 10 nM GCase and 100 nM saposin C
T1 sequence (P04062 40-536): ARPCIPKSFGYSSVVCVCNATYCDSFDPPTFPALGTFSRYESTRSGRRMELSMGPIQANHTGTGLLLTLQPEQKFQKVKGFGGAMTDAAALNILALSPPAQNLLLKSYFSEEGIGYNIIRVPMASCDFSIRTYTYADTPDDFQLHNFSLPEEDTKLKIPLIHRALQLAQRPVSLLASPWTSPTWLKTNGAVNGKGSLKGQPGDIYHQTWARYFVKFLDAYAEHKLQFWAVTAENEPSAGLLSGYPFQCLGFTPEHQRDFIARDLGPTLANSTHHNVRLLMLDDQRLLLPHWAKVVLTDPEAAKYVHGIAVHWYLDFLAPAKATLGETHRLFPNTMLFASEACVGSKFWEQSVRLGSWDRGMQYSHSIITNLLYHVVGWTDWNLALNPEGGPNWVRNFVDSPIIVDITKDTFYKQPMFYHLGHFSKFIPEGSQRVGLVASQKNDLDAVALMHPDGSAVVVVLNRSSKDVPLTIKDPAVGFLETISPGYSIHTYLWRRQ
Method: The ability of exemplary compounds to activate glucocerebrosidase (Gcase) was measured.
A 484 μL aliquot of a 1.0 mg/mL solution of phosphatidylserine (PS) (Sigma P7769) in chloroform was evaporated under a stream of nitrogen for 1 hour. The lipid film was dissolved over 4 minutes of vigorous vortexing in 40 mL of 176 mM K2HPO4/50 mM citric acid (pH 4.7) containing 7.5 μL of triton X-100, resulting in a mixed micellar preparation with a composition of 0.32 mM triton and 0.37 mol % PS. 4-Methylumbelliferyl-beta-D-glucopyranoside (ACROS-337025000) was dissolved in the micellar solution to a final concentration of 2 mM for use as the reaction substrate.
Test compounds were diluted to the desired concentrations with dimethylsulfoxide (DMSO) from 10 mM stocks, and 0.41 μL of the DMSO compound mixture was added to 100 μL of micellar solution containing 10 nM GCase and 100 nM saposin C (Enzo ALX-201-262-C050). Pre-incubation was allowed to occur for 30 minutes at room temperature, after which the reaction was initiated by combining 25 μL of substrate solution with 25 μL of compound/GCase/saposin mixture. The reaction proceeded for 15 minutes at room temperature and was stopped by adding 150 μL of 1M glycine, pH 12.5. The endpoint of the reaction was monitored by measuring fluorescence intensity (excitation: 365 nm; emission: 440 nm) on a SpectraMax i3 instrument (Molecular Devices). Test compounds were screened at 1.0 and 0.1 μM final concentration, and subsequent 8-point dose response curves were obtained using 3-fold dilutions from a maximum final concentration of 5 μM.

solubility [1] [µg/mL] | activation at 0.1 µM [2] [%] | activation at 1 µM [2] [%] | Compound Solubility in Water [1] [µg/mL] | Percent Gcase Activation, 0.1 μM Test Compound [2] | Percent Gcase Activation, 1 μM Test Compound [2] | solubility ([1]; in water) [µg/mL] | Structure (SMILES)
< 1.5 | > 20 | > 60 | – | – | – | – | C#Cc1ccc(NC(=O)c2ccn3c(C)cc(C)nc23)cc1 [III-2]
< 1.5 | < 10 | 30 to 60 | – | – | – | – | Cc1cc(C)n2ccc(C(=O)Nc3ccc(-c4cocn4)nc3)c2n1 [III-3]
< 1.5 | > 20 | > 60 | – | – | – | – | COCC#Cc1ccc(NC(=O)c2ccn3c(C)cc(C)nc23)cc1 [III-4]
10.1 (≈ 34.8 µM) | < 10 | > 60 | – | – | – | – | C#Cc1ccc(NC(=O)c2ccn3c(C)cc(C)nc23)cn1 [III-5]
0.06 (≈ 0.181 µM) | > 20 | > 60 | – | – | – | – | Cc1cc(C)n2ccc(C(=O)Nc3ccc(-c4ncco4)cc3)c2n1 [III-7]
0.01 (≈ 0.0287 µM) | > 20 | > 60 | – | – | – | – | Cc1cc(C)n2ccc(C(=O)Nc3ccc(-c4cccs4)nc3)c2n1 [III-8]
– | – | – | <0.1 | *** (greater than 20% Gcase activation) | +++ (Gcase activation greater than 60%) | – | Cc1cc(C)n2ccc(C(=O)Nc3ccc(-c4ccco4)cc3)c2n1 [III-9]
0.3 (≈ 0.903 µM) | > 20 | > 60 | – | – | – | – | Cc1cc(C)n2ccc(C(=O)Nc3ccc(-c4ccco4)nc3)c2n1 [III-10]
0.06 (≈ 0.174 µM) | > 20 | 30 to 60 | – | – | – | – | Cc1cc(C)n2ccc(C(=O)Nc3ccc(-c4cnn(C)c4)cc3)c2n1 [III-12]
– | – | – | 0.06 | *** (greater than 20% Gcase activation) | +++ (Gcase activation greater than 60%) | – | Cc1cc(C)n2ccc(C(=O)Nc3ccc4c(c3)CCC4)c2n1 [III-13]
– | – | – | <1.5 | *** (greater than 20% Gcase activation) | +++ (Gcase activation greater than 60%) | – | Cc1cc(C)n2ccc(C(=O)Nc3ccc(C)c(-c4ncco4)c3)c2n1 [III-14]
0.2 (≈ 0.647 µM) | > 20 | > 60 | – | – | – | – | Cc1cc(C)n2ccc(C(=O)Nc3ccc4c(c3)OCO4)c2n1 [III-16]
17.2 (≈ 48.8 µM) | < 10 | < 30 | – | – | – | – | Cc1cc(C)n2ccc(C(=O)Nc3ccc(OCCCCN)cc3)c2n1 [III-19]
0.2 (≈ 0.577 µM) | < 10 | < 30 | – | – | – | – | Cc1cc(C)n2ccc(C(=O)Nc3ccc(-c4cnn(C)c4)nc3)c2n1 [III-21]
– | > 20 | > 60 | – | – | – | – | Cc1cc(C)n2ccc(C(=O)N[C@@H](C)c3ccccc3F)c2n1 [III-77]
– | > 20 | > 60 | – | – | – | – | Cc1cc(C)n2ccc(C(=O)N[C@@H](C)c3ccc(F)cc3)c2n1 [III-78]
– | 10 to 20 | > 60 | – | – | – | – | Cc1cc(C)n2ccc(C(=O)NC(C)(C)c3ccccc3Cl)c2n1 [III-79]
– | – | – | – | – | – | 0.2 (≈ 0.647 µM) | Cc1cc(C)n2ccc(C(=O)Nc3ccc4c(c3)OCO4)c2n1 [III-280]

Further lines, the compound ahead of its results:

Structure (SMILES) | solubility [1] [µg/mL] | activation at 0.1 µM [2] [%] | activation at 1 µM [2] [%] | Compound Solubility in Water [1] [µg/mL] | Percent Gcase Activation, 0.1 μM Test Compound [2] | Percent Gcase Activation, 1 μM Test Compound [2] | solubility ([1]; in water) [µg/mL]
Cc1cc(C)n2ccc(C(=O)Nc3ccc(-c4cocn4)cc3)c2n1 [III-1] | < 1.5 | > 20 | > 60 | – | – | – | –
CCCCCOc1ccc(NC(=O)c2ccn3c(C)cc(C)nc23)cc1 [III-6] | < 0.1 | > 20 | > 60 | – | – | – | –
Cc1cc(C)n2ccc(C(=O)Nc3ccc(-c4ccncc4)cc3)c2n1 [III-11] | 0.01 (≈ 0.0292 µM) | 10 to 20 | 30 to 60 | – | – | – | –
Cc1cc(C)n2ccc(C(=O)Nc3ccc(Cl)c(COc4cccnc4)c3)c2n1 [III-15] | < 0.1 | > 20 | > 60 | – | – | – | –
Cc1cc(C)n2ccc(C(=O)Nc3ccc(N4CCCCC4)cc3)c2n1 [III-17] | < 0.1 | < 10 | 30 to 60 | – | – | – | –
COCC#Cc1ccc(NC(=O)c2ccn3c(C)cc(C)nc23)cn1 [III-18] | 0.7 (≈ 2.09 µM) | < 10 | 30 to 60 | – | – | – | –
CNCCCCOc1ccc(NC(=O)c2ccn3c(C)cc(C)nc23)cc1 [III-20] | 20.8 (≈ 56.8 µM) | < 10 | < 30 | – | – | – | –
CCCCCOC1CCC(NC(=O)c2ccn3c(C)cc(C)nc23)CC1 (centres unmarked) [III-22] | 0.5 (≈ 1.4 µM) | > 20 | > 60 | – | – | – | –
O=C(Nc1ccc(-c2cocn2)cc1)c1ccn2c(C(F)F)cc(C(F)F)nc12 [III-23] | 0.06 (≈ 0.148 µM) | > 20 | > 60 | – | – | – | –
O=C(NC1CCCc2ccccc21)c1ccn2c(C(F)F)cc(C(F)F)nc12 (centres unmarked) [III-24] | 0.2 (≈ 0.511 µM) | > 20 | > 60 | – | – | – | –
COCc1cc(C(C)C)nc2c(C(=O)NC3(C)CCCc4ncncc43)ccn12 (centres unmarked) [III-31] | – | < 10 | < 30 | – | – | – | –
COCc1cc(C(C)C)n2ccc(C(=O)NC3(C)CCCc4ncncc43)c2n1 (centres unmarked) [III-32] | – | < 10 | < 30 | – | – | – | –
COc1cc(C)nc2c(C(=O)Nc3ccc(-c4cocn4)cc3)ccn12 [III-51] | – | 10 to 20 | < 30 | – | – | – | –
Cc1cc(C)n2ccc(C(=O)Nc3ccc4c(c3)C(n3oc(C)cc3=O)CC4)c2n1 (centres unmarked) [III-97] | – | < 10 | 30 to 60 | – | – | – | –
Cc1cc(C)n2ccc(C(=O)NC3CCC4(CCOCC4)CC3)c2n1 [III-140] | – | < 10 | < 30 | – | – | – | –
Cc1cc(C)n2ccc(C(=O)NC3(C)CCCc4ncncc43)c2n1 (centres unmarked) [III-175] | – | < 10 | < 30 | – | – | – | –
Cc1cc(C)n2ccc(C(=O)NC3CCCC(Oc4cccs4)C3)c2n1 (centres unmarked) [III-191] | – | > 20 | > 60 | – | – | – | –
CCCOC1CC(CNC(=O)c2ccn3c(C)cc(C)nc23)C1 (centres unmarked) [III-239] | – | < 10 | < 30 | – | – | – | –
Cc1cc(C)n2ccc(C(=O)NC3CCC(Oc4cc(C)on4)C3)c2n1 (centres unmarked) [III-243] | – | < 10 | – | – | – | – | –
Cc1cc(C)n2ccc(C(=O)NC3CCC(Oc4cc(C)on4)C3)c2n1 (centres unmarked) [III-244] | – | – | – | – | – | +++ (Gcase activation greater than 60%) | –
Cc1cc(C(F)(F)F)nc2c(C(=O)NC3(C)CCCc4ncncc43)ccn12 (centres unmarked) [III-250] | – | < 10 | < 30 | – | – | – | –
Cc1cc(C)n2ccc(C(=O)Nc3ccc(N4CCCCC4)cc3)c2n1 [III-281] | – | – | – | – | – | – | < 0.1
COCC#Cc1ccc(NC(=O)c2ccn3c(C)cc(C)nc23)cn1 [III-282] | – | – | – | – | – | – | 0.7 (≈ 2.09 µM)

Reference: US11351173B2, “Substituted pyrrolo[1,2-a]pyrimidines and their use in the treatment of medical disorders” (Bial—R&D Investments, S.A., priority 2014, dated 2022)
